Residues, ends and D or L forms follow the SMILES beside them. *: point of attachment. Cbz = O=C(OCc1ccccc1)*; Bn = c1ccc(C*)cc1
| melting point [°C] | Compound |
| --- | --- |
| 141 to 142 | CCCCCCCCCCCC#Cc1ccccc1C=C(P(=O)(O)O)P(=O)(O)O |
| 179 | OC1CSC(Oc2ccc(-c3ccnc(Cl)c3)nc2)C(O)C1O (stereo not drawn) |
| 166 to 168 | Cc1nn(-c2cccc(C(F)(F)F)c2)cc1C(=O)O |
| 45 to 47 | CC(CN1C(=O)C2(COc3cc4c(cc32)CCO4)c2ccccc21)OCc1ccccc1 (stereo not drawn) |
| 107 to 108 | COc1ccc(C=O)c(OC)c1Cl |
| 180 to 182 | CN(C)C=NS(=O)(=O)c1cc(C(=O)c2cc3c(c(Cl)c2Cl)OC(CO)C3)ccc1Cl (stereo not drawn) |
| 137 to 139 | Cn1ncc2c1-c1c(Oc3ccc(O)cc3)sc(C(N)=O)c1CC2 |
| 215 to 218 | Oc1ccc(-c2cnc(S)o2)cc1O |
| 125 to 126 | COCCc1nc2c(N)nc3ccccc3c2n1CCC(=O)N1CCOCC1 |
| 77 to 78 | Clc1cnn(-c2ccc(CBr)c(Cl)c2)c1 |
| 132 to 134 | Cc1ccccc1C1SC2(CCN(C)CC2)c2ccccc21 (stereo not drawn) |
| 87 to 88 | COC(=O)c1cccc(OCc2ccc(Cl)c(Cl)c2)c1 |
| 87 | CCN(CC)c1ccc(Nc2ccnc(Nc3cc(OC)c(OC)c(OC)c3)n2)cc1 |
| 168 to 172 | O=[N+]([O-])c1cc(C(c2ccc(NCc3ccccc3)c([N+](=O)[O-])c2)(C(F)(F)F)C(F)(F)F)ccc1NCc1ccccc1 |
| 116 to 118 | O=S(=O)(c1ccccc1)N1CCN(C(c2ccccc2)c2ccc(Cl)cc2)CC1 (single isomer, unassigned; (-)) |
| 167 to 170 | C=Cc1cc(CNC(=O)Nc2ccc(C(C)(C)C)cc2)cc(F)c1NS(C)(=O)=O |
| 164 to 166 | Cc1cc(C(=O)NN)ccc1Br |
| 127 to 130 | CCOC(=O)c1ccc2[nH]c(C)c(SC)c2c1 |
| 182 to 184 | CC(C)CC1=CC(c2ccccc2)C2=C(CCCC2=O)N1 (stereo not drawn) |
| 120 to 121 | CC(C)(C)c1cc(OC(=O)c2ccccc2)ccc1O |
| 376 to 378 | O=c1[nH]nc(-c2ccc(-n3ccnc3)cc2)c2ncccc12 |
| 300 | N=C(O)c1cc(C(O)=Nc2ccc(O)cc2)c(C(=O)O)cc1C(=O)O |

| melting point [°C] | Compound |
| --- | --- |
| 174 to 176 | COc1ccc(C(NCCc2ccccc2)c2cccc(Nc3c(N)c(=O)c3=O)c2)cc1 (stereo not drawn) |
| 200 to 207 | COC(=O)COc1ccc2c(c1)S(=O)(=O)C=C(c1c(O)c3cc(F)ccc3n(Cc3ccc(F)cc3)c1=O)N2 |
| 136 to 138 | C=CCc1cn(C(c2ccccc2)(c2ccccc2)c2ccccc2)c(F)n1 |
| 181 to 183 | CN1CCC(=C2c3ccc(Cl)cc3C(=O)Cc3cccnc32)CC1 |
| 57 to 58 | CCN(CC)C(=O)n1ccc(Sc2c(C)cccc2Cl)n1 |
| 129 to 130 | Cc1ccccc1CN(c1ncnc2c1ncn2C1OC(CO)C(O)C1O)C1CCCCC1 (stereo not drawn) |
| 143 to 146 | O=C(CNc1ccccc1F)Nc1ccc(O)cc1 |
| 43 to 45 | CCCCCCC1=CC(O)(C(Br)Br)N(c2ccccc2)C1=O (stereo not drawn) |
| 210 to 212 | N#CCn1nnc2cc3c(cc2c1=O)OC1CCCN1C3=O (stereo not drawn) |
| 189 to 192 | O=[N+]([O-])c1cccc(S(=O)(=O)Nc2nncs2)c1 |
| 119 to 120 | CCCCCN1CCN(c2cccc3c2C[C@H](NC(C)=O)CC3)CC1 |
| 149 to 150 | COc1ccc(-c2cc3c(OC)cc(OC)cc3nc2OCC#N)cc1 |
| 194 to 196 | CCCOc1ccc(S(=O)(=O)N2CCN(CC)CC2)cc1-c1nc2cc3nc[nH]c3cc2c(=O)[nH]1 |
| 192 | COc1ccc(-c2nc(Sc3ccc(C)cc3)n(C3CCCCO3)c2-c2ccc(OC)cc2)cc1 (stereo not drawn) |
| 246 to 247 | CC(C)CC(NC(=O)c1cc(F)ccc1SSc1ccc(F)cc1C(=O)NC(CC(C)C)C(=O)O)C(=O)O (stereo not drawn) |
| 50 to 52 | O=C1NC(=O)C(N(Cc2ccc(Br)cc2)c2ccc(CCNCC(O)COc3ccc(OCc4ccccc4)cc3)cc2)S1 (stereo not drawn) |
| 159 to 161 | CCC(OC(=O)C1CC1)c1ccc(Cl)c2nc3n(c12)CCCN3c1ccc(Cl)cc1Cl (stereo not drawn) |
| 126 to 128 | CC(C)(C)COc1c(-c2ccc(S(C)(=O)=O)cc2)cnn(-c2ccc(F)c(F)c2)c1=O |
| 143 to 144 | CN1CCCCCC1=NC(=O)Nc1c(Cl)cccc1Cl |
| 200 to 202 | COc1cc(C(=O)NCc2ccc3c(c2)C(=C2CCN(C)CC2)c2ccccc2C=C3)cc(OC)c1OC |
| 188 to 191 | CCCCc1nc2cccc(C(=O)O)c2n1Cc1ccc2nc(-c3ccccc3-c3nnn[nH]3)ncc2c1 |
| 186 | Cc1ccc(N2CCN(S(=O)(=O)c3cccc(/C=C/C(=O)NO)c3)CC2C)cc1 (stereo not drawn) |

| melting point [°C] | Compound |
| --- | --- |
| 147 to 148 | CCc1cnc(CSc2cnc(NC(C)=O)s2)o1 |
| 90 to 92 | Cc1nn(-c2cncc(F)c2)cc1[N+](=O)[O-] |
| 154 to 156 | CC1CC(=O)NN=C1c1ccc(NCCCN)c([N+](=O)[O-])c1 (stereo not drawn) |
| 125 to 126 | CCCCCN(Cc1ccc(-c2ccccc2S(=O)(=O)NC(C)(C)C)cc1)C(=O)Cl |
| 81 to 83 | CCOC(=O)C(=Cc1ccc(OC)c(O)c1)C(=O)OCC |
| 128 to 133 | CCS(=O)(=O)N[C@H](C(=O)NCCc1ccc(OC/C=C/c2ccccc2)c(OC)c1)C(C)C |
| 205 to 206 | CCc1[nH]n(C2CCCC2)c2nc(-c3ccc(OC)c(OCCN4CCOCC4)c3)nc(=O)c1-2 |
| 94 to 95 | CC(C)n1nc(C#Cc2cccc(Cl)c2)ccc1=O |
| 181 to 182 | Cc1c[nH]c(=O)nc1OCc1ccccc1 |
| 68 to 70 | CN1CCN(C(=O)[C@H](CC(N)=O)NC(=O)OC(C)(C)C)CC1 |
| 184 to 186 | COC1=CC2(C)CCc3c(OC)ccc(OC)c3C2=CC1=O (stereo not drawn) |
| 87 to 97 | CC(Cc1c[nH]c2ccccc12)(NC(=O)OC1C2CC3CC(C2)CC1C3)C(=O)NCCc1ccco1 (stereo not drawn) |
| 129 to 131 | CC(Oc1ccc(Oc2ncc(Cl)cc2F)cc1)C(=O)NC=C(C#N)C#N (stereo not drawn) |
| 182 to 188 | CCNC(=O)C(COCc1ccccc1)NC(=O)C(Cc1ccc(OCc2ccccc2)cc1)NC(=O)C(Cc1c[nH]cn1)NC(=O)OCc1ccccc1 (stereo not drawn) (Cbz-His-Tyr(Bn)-Ser(Bn)-NHEt; configuration not given here) |
| 193 to 194 | CCCc1nn(C)c2c(=O)[nH]c(-c3cc(-n4ccnc4)ccc3OCC)nc12 |
| 232 to 234 | COCCc1c[nH]c(=O)[nH]c1=O |
| 103 to 105 | CCN(CC)CCNC(=O)c1ccc(I)c2cc3ccccc3nc12 |
| 222 to 224 | Cc1cc(C)c2ncc(NC(=O)C3(C)CCc4c(C)c(O)c(C)c(C)c4O3)c(-c3ccccc3Cl)c2c1 (stereo not drawn) |
| 65 to 66 | CCOC(=O)CCCCC(=O)c1ccc2cc(OCCC(C)C)ccc2c1 |
| 187 to 188 | CC(=O)N=c1sc(C)cn1CC(=O)c1cccs1 |
| 246 to 248 | O=C(NCc1ccc(Cl)cc1)c1cnc2ccc(OCCO)cc2c1O |

| Compound | melting point [°C] |
| --- | --- |
| Nc1cc(N2CCNCC2)ccc1[N+](=O)[O-] | 159 to 160 |
| Fc1c(F)c(F)c2c(CCNCc3cccc(OCC(F)(F)F)c3)c[nH]c2c1F | 107 to 108 |
| CC(C)S(=O)(=O)c1ccc2c(c1)nc(CC(C)(C)C)n2CCN1CCOCC1 | 151 |

From a melting point compilation (Tetko et al.; mined from patent text by program, amines drawn as free bases though some values may be those of a salt)
